Laboratory results taken from PubChem BioAssay (NCI).
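Briefly, cells in 96-well plates were exposed to five compound concentrations for 48 h, and endpoints were estimated by linear interpolation. GI50: concentration for 50% inhibition of growth. TGI denotes the concentration required for complete inhibition of growth.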

Columns and labels:
Experiment in all cases: growth of human tumour cells (NCI), 48 h; in the data active means GI50 below about 0.43 µM; inactive means the rest
786-0 renal = tested on: 786-0 renal
A498 renal = tested on: A498 renal
A549 NSCLC = tested on: A549 NSCLC
ACHN renal = tested on: ACHN renal
BT-549 breast = tested on: BT-549 breast
CAKI-1 renal = tested on: CAKI-1 renal
CCRF-CEM leukemia = tested on: CCRF-CEM leukemia
COLO 205 colon = tested on: COLO 205 colon
DU-145 prostate = tested on: DU-145 prostate
EKVX NSCLC = tested on: EKVX NSCLC
HCC-2998 colon = tested on: HCC-2998 colon
HCT-116 colon = tested on: HCT-116 colon
HCT-15 colon = tested on: HCT-15 colon
HL-60(TB) leukemia = tested on: HL-60(TB) leukemia
HOP-62 NSCLC = tested on: HOP-62 NSCLC
HOP-92 NSCLC = tested on: HOP-92 NSCLC
HS 578T breast = tested on: HS 578T breast
HT29 colon = tested on: HT29 colon
IGROV1 ovarian = tested on: IGROV1 ovarian
K-562 leukemia = tested on: K-562 leukemia
KM12 colon = tested on: KM12 colon
LOX IMVI melanoma = tested on: LOX IMVI melanoma
M14 melanoma = tested on: M14 melanoma
MALME-3M melanoma = tested on: MALME-3M melanoma
MCF7 breast = tested on: MCF7 breast
MDA-MB-231 breast = tested on: MDA-MB-231 breast
MDA-MB-435 = tested on: MDA-MB-435
MDA-MB-468 breast = tested on: MDA-MB-468 breast
MOLT-4 leukemia = tested on: MOLT-4 leukemia
NCI-H226 lung = tested on: NCI-H226 lung
NCI-H23 lung = tested on: NCI-H23 lung
NCI-H460 lung = tested on: NCI-H460 lung
NCI-H522 lung = tested on: NCI-H522 lung
NCI/ADR-RES ovarian = tested on: NCI/ADR-RES ovarian
OVCAR-3 ovarian = tested on: OVCAR-3 ovarian
OVCAR-4 ovarian = tested on: OVCAR-4 ovarian
OVCAR-5 ovarian = tested on: OVCAR-5 ovarian
OVCAR-8 ovarian = tested on: OVCAR-8 ovarian
PC-3 prostate = tested on: PC-3 prostate
RPMI-8226 leukemia = tested on: RPMI-8226 leukemia
RXF 393 renal = tested on: RXF 393 renal
SF-268 CNS = tested on: SF-268 CNS
SF-295 CNS = tested on: SF-295 CNS
SF-539 CNS = tested on: SF-539 CNS
SK-MEL-2 melanoma = tested on: SK-MEL-2 melanoma
SK-MEL-28 melanoma = tested on: SK-MEL-28 melanoma
SK-MEL-5 melanoma = tested on: SK-MEL-5 melanoma
SK-OV-3 ovarian = tested on: SK-OV-3 ovarian
SN12C renal = tested on: SN12C renal
SNB-19 CNS = tested on: SNB-19 CNS
SNB-75 CNS = tested on: SNB-75 CNS
SR leukemia = tested on: SR leukemia
SW-620 colon = tested on: SW-620 colon
T-47D breast = tested on: T-47D breast
TK-10 renal = tested on: TK-10 renal
U251 CNS = tested on: U251 CNS
UACC-257 melanoma = tested on: UACC-257 melanoma
UACC-62 melanoma = tested on: UACC-62 melanoma
UO-31 renal = tested on: UO-31 renal

COc1cc2c(c(OC)c1OC)C(=O)CC(c1cccc(NC(=O)c3cc([N+](=O)[O-])ccc3Cl)c1)O2 (stereo not drawn)
17.8 µM: TGI (HOP-92 NSCLC)
15.9 µM: TGI (M14 melanoma)
45.3 µM: TGI (UACC-62 melanoma)
38.1 µM: TGI (RPMI-8226 leukemia)
57.7 µM: TGI (HL-60(TB) leukemia)
27.8 µM: TGI (ACHN renal)
5.61 µM: TGI (SW-620 colon)
3.64 µM: TGI (HCT-116 colon)
inactive: GI50 (786-0 renal) 17.5 µM | GI50 (A498 renal) 45 µM | GI50 (A549 NSCLC) 6.66 µM | GI50 (ACHN renal) 5 µM | GI50 (BT-549 breast) 2.27 µM | GI50 (CAKI-1 renal) 3.22 µM | GI50 (CCRF-CEM leukemia) 2.44 µM | GI50 (COLO 205 colon) 5.49 µM | GI50 (DU-145 prostate) 5.48 µM | GI50 (EKVX NSCLC) 21.9 µM | GI50 (HCC-2998 colon) 13.7 µM | GI50 (HCT-116 colon) 1.69 µM | GI50 (HCT-15 colon) 2.04 µM | GI50 (HL-60(TB) leukemia) 4.91 µM | GI50 (HOP-62 NSCLC) 60.9 µM | GI50 (HOP-92 NSCLC) 2.73 µM | GI50 (HS 578T breast) 3.98 µM | GI50 (HT29 colon) 7.21 µM | GI50 (IGROV1 ovarian) 11.3 µM | GI50 (K-562 leukemia) 4.42 µM | GI50 (KM12 colon) 3.86 µM | GI50 (LOX IMVI melanoma) 1.59 µM | GI50 (M14 melanoma) 3.17 µM | GI50 (MALME-3M melanoma) 18.2 µM | GI50 (MCF7 breast) 2.56 µM | GI50 (MDA-MB-231 breast) 3.96 µM | GI50 (MDA-MB-435) 3.51 µM | GI50 (MDA-MB-468 breast) 2.3 µM | GI50 (MOLT-4 leukemia) 2.56 µM | GI50 (NCI-H226 lung) 3.37 µM | GI50 (NCI-H23 lung) 5.34 µM | GI50 (NCI-H460 lung) 8.14 µM | GI50 (NCI-H522 lung) 3.04 µM | GI50 (NCI/ADR-RES ovarian) 4.99 µM | GI50 (OVCAR-3 ovarian) 5.12 µM | GI50 (OVCAR-4 ovarian) 26.6 µM | GI50 (OVCAR-5 ovarian) 22.4 µM | GI50 (OVCAR-8 ovarian) 3.47 µM | GI50 (PC-3 prostate) 7.27 µM | GI50 (RPMI-8226 leukemia) 3.14 µM | GI50 (RXF 393 renal) 4.02 µM | GI50 (SF-268 CNS) 6.92 µM | GI50 (SF-295 CNS) 7.61 µM | GI50 (SF-539 CNS) 3.54 µM | GI50 (SK-MEL-2 melanoma) 10.8 µM | GI50 (SK-MEL-28 melanoma) 15.5 µM | GI50 (SK-MEL-5 melanoma) 8.99 µM | GI50 (SK-OV-3 ovarian) 38.8 µM | GI50 (SN12C renal) 2.74 µM | GI50 (SNB-19 CNS) 18.6 µM | GI50 (SNB-75 CNS) 2.53 µM | GI50 (SR leukemia) 2.39 µM | GI50 (SW-620 colon) 2.14 µM | GI50 (T-47D breast) 3.74 µM | GI50 (TK-10 renal) 33.6 µM | GI50 (U251 CNS) 4.32 µM | GI50 (UACC-257 melanoma) 6.27 µM | GI50 (UACC-62 melanoma) 4.17 µM | GI50 (UO-31 renal) 4.78 µM
16.8 µM: TGI (BT-549 breast)
33.8 µM: TGI (KM12 colon)
73.3 µM: TGI (SK-MEL-5 melanoma)
18.9 µM: TGI (SF-539 CNS)
26.3 µM: TGI (SNB-75 CNS)
19.1 µM: TGI (MDA-MB-231 breast)
14.6 µM: TGI (SN12C renal)
15.5 µM: TGI (NCI-H522 lung)
58.7 µM: TGI (T-47D breast)
17.5 µM: TGI (NCI-H226 lung)
40.1 µM: TGI (SK-MEL-2 melanoma)
5.92 µM: TGI (MDA-MB-468 breast)
6.08 µM: TGI (HCT-15 colon)
> 100 µM: TGI (786-0 renal) | TGI (A498 renal) | TGI (A549 NSCLC) | TGI (CAKI-1 renal) | TGI (DU-145 prostate) | TGI (EKVX NSCLC) | TGI (HCC-2998 colon) | TGI (HOP-62 NSCLC) | TGI (HS 578T breast) | TGI (HT29 colon) | TGI (IGROV1 ovarian) | TGI (K-562 leukemia) | TGI (MALME-3M melanoma) | TGI (MCF7 breast) | TGI (MOLT-4 leukemia) | TGI (OVCAR-3 ovarian) | TGI (OVCAR-4 ovarian) | TGI (OVCAR-5 ovarian) | TGI (PC-3 prostate) | TGI (SF-268 CNS) | TGI (SF-295 CNS) | TGI (SK-MEL-28 melanoma) | TGI (SK-OV-3 ovarian) | TGI (SNB-19 CNS) | TGI (SR leukemia) | TGI (TK-10 renal) | TGI (UACC-257 melanoma) | TGI (UO-31 renal)
82.9 µM: TGI (NCI-H460 lung)
7.84 µM: TGI (CCRF-CEM leukemia)
24.8 µM: TGI (MDA-MB-435)
29.5 µM: TGI (NCI/ADR-RES ovarian)
26.9 µM: TGI (NCI-H23 lung)
21 µM: TGI (COLO 205 colon)
25 µM: TGI (U251 CNS)
3.56 µM: TGI (LOX IMVI melanoma)
34.4 µM: TGI (RXF 393 renal)
20.5 µM: TGI (OVCAR-8 ovarian)
